The values below are quoted from earlier work in patent US10034825B2, “Luminate eye gel” (Jan Marini Skin Research, priority 2015, dated 2018).

The conditions of the data set: after penetration through the skin to the living cells.

`CC(=O)Oc1c(C)c(C)c2c(c1C)CCC(C)(CCC[C@H](C)CCC[C@H](C)CCCC(C)C)O2` (stereo partly shown) [Tocopheryl acetate]: the “fraction converted to free tocopherol” value is reported as “about 5%”.
